In PubChem BioAssay AID1963848 (Molecular Pharmacology Branch, DTP, NCI, 2024):
Values joined by “and” are separate entries in the source; they are usually repeats but may differ in a detail not shown here. Equal values may be shown once.

Tested on: 379773-124-R-J2-PDC spheroid viability
Assay: Anticancer human tumor 379773-124-R-J2-PDC patient-derived endometrial carcinoma cell line growth inhibition [POLQ]
Settings: spheroids with HUVEC and MSC; for viability, T/C: stronger effect = lower value; active = viability on the fitted dose curve at most 10% of control; inactive = the rest
Experimental: Multicellular complex tumor spheroid response to Polymerase (POL) inhibitors (novobiocin, ART-558, RP6685) in combination with a variety of drugs and investigational agents in selected tumor cell lines
The POL inhibitors (novobiocin, ART-558, and RP6685) were evaluated both individually and in combination with standard of care and investigational anticancer small molecules within a complex spheroid model of solid tumors. . Complex spheroids include a stromal component modeled by human endothelial cells (HUVEC) and fibroblasts modeled by human mesenchymal stem cells (MSCs). The concentration ranges selected for each drug and investigational agent were based upon clinically achievable concentrations if the clinical Cmax of the agent was known.
Compounds. The drugs and investigational agents: novobiocin (NSC847541), ART-558 (NSC835418), RP-6685 (NSC848927), peposertib (NSC802822), ceralasertib (NSC780249), elimusertib (NSC800525), camonsertib (NSC841442), AZD-1390 (NSC803789), olaparib (NSC753686), talazoparib (NSC767125), rucaparib (NSC756644), sotorasib (NSC818433), MRTX-1133 (NSC836407), SN-38 (NSC673596), topotecan (NSC609699), epotoside (NSC141540), doxorubicin (NSC123127), gemcitabine (NSC613327), 5-fluorouracil (NSC19893), paclitaxel (NSC125973), vemurafenib (NSC761431), MSA-2 (NSC828583), SN-011 (NSC837082), adavosertib (NSC754352), prexasertib (NSC758257), carboplatin (NSC241240) and oxaliplatin (NSC266046), were obtained from the National Cancer Institute (NCI) Developmental Therapeutics Program Chemical Repository (21). The FDA-approved anticancer drug set is available from the Developmental Therapeutics Program at https://dtp.cancer.gov/organization/dscb/obtaining/. […] The stock solutions were prepared in dimethyl sulfoxide (DMSO, Sigma-Aldrich, St. Louis, MO, cat. D2650), except for the platinum compounds which were prepared in saline (Quality Biological, Gaithersburg, MD, cat. 114-055-101), at 800-fold the tested concentration and stored at -70 degrees C prior to their use. All drugs and investigational agents were tested over a range starting from a high concentration at or near the clinical Cmax and decreasing in half-log increments. If the clinical Cmax for an agent had not been determined, the highest concentration tested was 10 microM, except for SN-38, which was tested at a high concentration of 1 microM.
Cell Culture. All cells were maintained in an incubator at 37 degrees C and 5% CO2 with 95% humidity. The PDC lines were cultured according to standard operating procedures established by the NCI PDMR (https://pdmr.cancer.gov). Table 3 of the manuscript, lists the cell lines along with the number of the three cell types plated to form the mct-spheroids and media for tumor cell growth. After thawing, all PDC lines, except 997537-175-T-J1-PDC and 415267-285-R-J2-PDC, were cultured in Matrigel-coated flasks prepared with a working solution of 1X Ham's F-12 nutrient mix, without supplementation (Thermo Fisher Scientific, cat. 11765054), 100 U/mL penicillin-streptomycin (Thermo Fisher Scientific, cat. 15140122), and 2.5% Matrigel (Corning Inc., Corning, NY, cat. 354248) for the first three passages. The two PDC lines 997537-175-T-J1-PDC and 415267-285-R-J2-PDC were cultured on uncoated flasks. The 857933-349-R-J2-PDC line was cultured in 6C/Colon 1B media containing advanced DMEM/F-12 (Thermo Fisher Scientific, cat. 12634028), 10 mM HEPES (Thermo Fisher Scientific, cat. 15630080), 1X GlutaMAX supplement (Thermo Fisher Scientific, cat. 35050061), 0.1 mg/mL primocin (InvivoGen, San Diego, CA, cat. ant-pm-2), 10% defined fetal bovine serum, heat inactivated (HyClone Laboratories Inc., Logan, UT, cat. SH30070.03HI), 50% L-WRN conditioned media (ATCC, cat. CRL-3276), 1.25 mM N-Acetyl-L-cysteine (Sigma-Aldrich, cat. A9165), 10 mM nicotinamide (Sigma-Aldrich, cat. N0636), 1X B-27 supplement (Thermo Fisher Scientific, cat. 17504044), 1X N-2 supplement (Thermo Fisher Scientific, cat. […]

[1] = curve of first compound, second compound 0.0316 µM
[2] = curve of first compound, second compound 0.1 µM
[3] = curve of first compound, second compound 0.316 µM
[4] = curve of first compound, second compound 1 µM
[5] = curve of first compound, second compound 3.16 µM
[6] = curve of first compound, second compound 10 µM
[7] = second compound 0.0316 µM, first compound 0.0316 µM
[8] = second compound 0.0316 µM, first compound 0.1 µM
[9] = second compound 0.1 µM, first compound 0.0316 µM
[10] = second compound 0.1 µM, first compound 0.1 µM
[11] = second compound 0.316 µM, first compound 0.0316 µM
[12] = second compound 0.316 µM, first compound 0.1 µM
[13] = second compound 1 µM, first compound 0.0316 µM
[14] = second compound 1 µM, first compound 0.1 µM
[15] = second compound 3.16 µM, first compound 0.0316 µM
[16] = second compound 3.16 µM, first compound 0.1 µM
[17] = second compound 10 µM, first compound 0.0316 µM
[18] = second compound 10 µM, first compound 0.1 µM
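Note: spheroids exposed to drugs for seven days before readout.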
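Throughout, for viability, T/C: percent viability relative to DMSO vehicle control taken as 100%.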

CC1COCCN1c1cc(C2(O)CC3CCC(C2)O3)c2cnn(-c3ccn[nH]3)c2n1 (stereo unspecified)
84.4 nM and 94.4 nM and 127 nM: IC50 (curve of compound)
active: viability, T/C (compound 1 µM) 10.4% and 9.93% and 13.2% | viability, T/C (compound 3.16 µM) 8.43% and 7.19% and 10.1% | viability, T/C (compound 10 µM) 2.25% and 2.29% and 3.67%
inactive: viability, T/C (compound 0.0316 µM) 90.7% and 78.4% and 84.5% | viability, T/C (compound 0.1 µM) 43% and 48.6% and 58.8% | viability, T/C (compound 0.316 µM) 11.1% and 12% and 16.6%

CNCc1ccc(-c2[nH]c3cc(F)cc4c3c2CCNC4=O)cc1 + COC1C(OC(N)=O)C(O)C(Oc2ccc3c(O)c(NC(=O)c4ccc(O)c(CC=C(C)C)c4)c(=O)oc3c2C)OC1(C)C
inactive: viability, T/C [7] 104% | viability, T/C [8] 86.1% | viability, T/C (second compound 0.0316 µM, first compound 0.316 µM) 84.5% | viability, T/C (second compound 0.0316 µM, first compound 1 µM) 74.5% | viability, T/C (second compound 0.0316 µM, first compound 3.16 µM) 82.5% | viability, T/C (second compound 0.0316 µM, first compound 10 µM) 78.1% | viability, T/C [9] 102% | viability, T/C [10] 86.7% | viability, T/C (second compound 0.1 µM, first compound 0.316 µM) 90.5% | viability, T/C (second compound 0.1 µM, first compound 1 µM) 88.2% | viability, T/C (second compound 0.1 µM, first compound 3.16 µM) 87.8% | viability, T/C (second compound 0.1 µM, first compound 10 µM) 82.9% | viability, T/C [11] 95.5% | viability, T/C [12] 96.8% | viability, T/C (second compound 0.316 µM, first compound 0.316 µM) 87.8% | viability, T/C (second compound 0.316 µM, first compound 1 µM) 93.2% | viability, T/C (second compound 0.316 µM, first compound 3.16 µM) 77.2% | viability, T/C (second compound 0.316 µM, first compound 10 µM) 78.4% | viability, T/C [13] 91.8% | viability, T/C [14] 98.2% | viability, T/C (second compound 1 µM, first compound 0.316 µM) 78.1% | viability, T/C (second compound 1 µM, first compound 1 µM) 86.1% | viability, T/C (second compound 1 µM, first compound 3.16 µM) 82.6% | viability, T/C (second compound 1 µM, first compound 10 µM) 67.3% | viability, T/C [15] 79.8% | viability, T/C [16] 79.9% | viability, T/C (second compound 3.16 µM, first compound 0.316 µM) 76.2% | viability, T/C (second compound 3.16 µM, first compound 1 µM) 85.1% | viability, T/C (second compound 3.16 µM, first compound 3.16 µM) 80.1% | viability, T/C (second compound 3.16 µM, first compound 10 µM) 78.3% | viability, T/C [17] 80.3% | viability, T/C [18] 81.7% | viability, T/C (second compound 10 µM, first compound 0.316 µM) 96.5% | viability, T/C (second compound 10 µM, first compound 1 µM) 75.5% | viability, T/C (second compound 10 µM, first compound 3.16 µM) 76.7% | viability, T/C (second compound 10 µM, first compound 10 µM) 65.7%
> 10000 nM: IC50 [1] | IC50 [2] | IC50 [3] | IC50 [4] | IC50 [5] | IC50 [6]

Cn1ncnc1[C@H]1c2n[nH]c(=O)c3cc(F)cc(c23)N[C@@H]1c1ccc(F)cc1 + COC1C(OC(N)=O)C(O)C(Oc2ccc3c(O)c(NC(=O)c4ccc(O)c(CC=C(C)C)c4)c(=O)oc3c2C)OC1(C)C
> 100 nM: IC50 [1] | IC50 [2] | IC50 [3] | IC50 [4] | IC50 [5] | IC50 [6]
inactive: viability, T/C (second compound 0.0316 µM, first compound 0.000316 µM) 97.8% | viability, T/C (second compound 0.0316 µM, first compound 0.001 µM) 82.9% | viability, T/C (second compound 0.0316 µM, first compound 0.00316 µM) 99.7% | viability, T/C (second compound 0.0316 µM, first compound 0.01 µM) 96.3% | viability, T/C [7] 74% | viability, T/C [8] 56.1% | viability, T/C (second compound 0.1 µM, first compound 0.000316 µM) 90.3% | viability, T/C (second compound 0.1 µM, first compound 0.001 µM) 93.4% | viability, T/C (second compound 0.1 µM, first compound 0.00316 µM) 110% | viability, T/C (second compound 0.1 µM, first compound 0.01 µM) 87.2% | viability, T/C [9] 69.9% | viability, T/C [10] 56.4% | viability, T/C (second compound 0.316 µM, first compound 0.000316 µM) 91.4% | viability, T/C (second compound 0.316 µM, first compound 0.001 µM) 78.5% | viability, T/C (second compound 0.316 µM, first compound 0.00316 µM) 82.5% | viability, T/C (second compound 0.316 µM, first compound 0.01 µM) 85.4% | viability, T/C [11] 74% | viability, T/C [12] 66.2% | viability, T/C (second compound 1 µM, first compound 0.000316 µM) 86.7% | viability, T/C (second compound 1 µM, first compound 0.001 µM) 83.2% | viability, T/C (second compound 1 µM, first compound 0.00316 µM) 85.2% | viability, T/C (second compound 1 µM, first compound 0.01 µM) 92.3% | viability, T/C [13] 67.6% | viability, T/C [14] 60.9% | viability, T/C (second compound 3.16 µM, first compound 0.000316 µM) 86.6% | viability, T/C (second compound 3.16 µM, first compound 0.001 µM) 89.3% | viability, T/C (second compound 3.16 µM, first compound 0.00316 µM) 89.5% | viability, T/C (second compound 3.16 µM, first compound 0.01 µM) 78.8% | viability, T/C [15] 83.3% | viability, T/C [16] 56.1% | viability, T/C (second compound 10 µM, first compound 0.000316 µM) 86% | viability, T/C (second compound 10 µM, first compound 0.001 µM) 87% | viability, T/C (second compound 10 µM, first compound 0.00316 µM) 89.3% | viability, T/C (second compound 10 µM, first compound 0.01 µM) 76% | viability, T/C [17] 74% | viability, T/C [18] 58.1%
